This is an account of results in patent US10918687B2, “Kava derived therapeutic compounds and methods of use thereof” (KUALITY HERBCEUTICS LLC, priority 2013, dated 2021).

“And” between values parts separate entries of the source, which are not always exact repeats. Equal values may be shown once.

Series [1] has as its system NNK-induced lung tumorigenesis. As to the kind of experiment: NNK-induced lung adenoma formation in A/J mice. It counts as in vivo. Conditions: for reduction of adenoma multiplicity / reduction of adenoma incidence / adenoma multiplicity: Example 4, Day 119; for adenoma multiplicity: NNK control 13.9±6.9; for minimum effective dose: dietary dose against NNK-induced lung adenoma formation. As for the experimental part: Female A/J mice, 5-6 weeks of age from the Jackson Laboratory (Bar Harbor, Me.), were handled according to animal welfare protocols approved by IACUC at the University of Minnesota. […] After one-week acclimation, mice were weighed, randomized into different groups and switched to AIN-93G-powdered diet, defined as Day 1. The number of mice in each group was specified in the Result Section. On Day 7 and Day 14, mice in the negative control groups received 0.1 mL physiological saline solution while mice in the other groups received NNK (100 and 67 mg/kg respectively in 0.1 mL of physiological saline solution) via i.p. injection. At the end of Day 21, mice were switched to AIN-93M-powdered diet until the end of the study. Diet consumption was measured twice weekly and bodyweight was monitored weekly. All mice were euthanized with an overdose of carbon dioxide. The lungs were collected and tumors on the surface of the lung were counted.
Data on lung adenoma multiplicity were reported as mean±SD (n=5-40). […] For Experiment 2, unpaired t-test was used for comparison between NNK control and kava treatment groups. Two-sided p-value≤0.05 was considered statistically significant. Data on DNA adducts were reported as mean±SD (n=3). For the time-course study, unpaired […] was used for comparisons between NNK control and kava treatment groups. Two-sided p-value≤0.05 was considered statistically significant: *p<0.05, **p<0.01, and ***p<0.001. For the 24-h time point study, one-way ANOVA was used to compare means.
After one-week acclimation, mice were weighed, randomized into eight groups and switched to the AIN-93 G diet on a date defined as Day 1. The number of mice in each group is specified in the Results Section (FIG. 36). Mice were fed diets supplemented with different compounds at the dose specified in the Results Section during Day 1-Day 14. On Day 7 and Day 14, mice in the negative control group received 0.1 mL of saline solution while mice in the other groups received NNK (100 and 67 mg/kg, respectively, in 0.1 mL of saline solution) via i.p. injection. At the end of Day 21, mice were switched to the AIN-93 M diet until the end of the study. The diet was replenished twice weekly. The diet consumption was measured twice weekly and the bodyweight was monitored weekly. This study was terminated at the end of Day 119. All mice were euthanized with CO2 overdosing.

Series [2] concerns NNK-induced DNA damage in liver tissues. Description: NNK-induced DNA damage in A/J mouse liver tissues. It counts as in vivo, A/J mice. The conditions noted are these: diet Day 1-Day 7, 24 h after NNK; data not shown. As for the experimental part:
DNA was isolated and purified from ˜100 mg lung and liver tissues of each mouse, following Genomic-tip 100/G protocol from Qiagen Corp (Valencia, Calif.).
After one-week acclimation, A/J mice were weighed and randomized into ten groups (3 mice per group except for Group 1 that had one mouse as the negative control) and switched to the AIN-93 G diet on a date defined as Day 1. Mice in Groups 1 and 2 were given the AIN-93 G diet during Day 1-Day 7. Mice in Groups 3-10 were given the AIN-93 G diets supplemented with kava, (+)-DHK, (+)-DHM, and synthetic (±)-DHM respectively at the specified dose during Day 1-Day 7. Mice in Groups 2-10 were given a single dose of NNK at 100 mg/kg bodyweight in saline (0.1 ml) via i.p. injection at the beginning of Day 7 while the mouse in Group 1 was given saline (0.1 ml). Mice were euthanized by CO2 overdosing 24 h after NNK treatment, and lung and liver tissues were collected and stored at −80° C. until DNA isolation. A set of NNK-induced DNA adducts (O^6-mG, 7-mG, 7-pobG, O^6-pobdG, O^2-pobdT, 7-phbG, O^6-phbdG and O^2-phbdT) were quantified by following reported procedures (Leitzman, P et al. (2014) Cancer. Prev. Res., 7: 86-96; Peterson, L A et al. (2013) Chem. Res. Toxicol. 26: 1464-1473; Upadhyaya, P et al. (2008) Chem. Res. Toxicol. 21: 1468-1476). For 7-mG isolation, DNA (30 μg) was dissolved in 10 mM sodium phosphate buffer, pH 7 (500 μL) and spiked with [^13C1^2H3]7-mG (10 pmol). Samples were heated to 80° C. for 30 minutes. An aliquot (100 μL) was removed for 7-mG analysis.

The test system of series [3] is human lung H2009 cancer cell line tumors. As to the kind of experiment: H2009 human lung cancer xenograft in nude mice. It counts as in vivo. Conditions: 40 mg/kg bodyweight via i.p. injection or oral gavage. The procedure: Typically human origin lung cancer cells were cultured and mixed with Metrigel. 2-5×10^6 cells were inoculated in the nude mice. Mice were randomized into different groups when the tumor size reached ˜50 mm^3. Treated mice received drug candidate at a dose of 40 mg/kg bodyweight via i.p. injection or oral gavage. The tumor size was monitored once or twice a week until 5 weeks since the treatment or when the size of the tumors >1000 mm^3. Mouse bodyweight was monitored once a week. Mice were CO^2 euthanized and the tumors were collected and weighed. Major organs were grossly examined and weighed as well.

For series [4], the system named is PhIP-induced DNA damage in hepe1c1c7 cells. As to the kind of experiment: PhIP-induced DNA damage in hepe1c1c7 cells. The series is classed as cell-based, rodent. Conditions: 1, 5 and 25 μM co-treated with PhIP (10 μM) for 24 hours. The text has this:
(§1) The goal of this study was to explore the potential scope of dihydromethysticin in blocking/reducing different carcinogen-induced DNA damage and detoxifying such carcinogens. […] Benzo(a)pyrene (BaP) is a representative polyaromatic hydrocarbon-based carcinogen in cigarette smoke and is present in various industrial/motor exhaust/waste. BaP is a human carcinogen to lung, stomach and other tissues. A rodent liver cancer cell line was used in these studies. Briefly, the hepe1c1c7 cells were co-treated with dihydromethysticin (1, 5, and 25 μM) and PhIP (10 μM) for 24 hours with DNA isolated and PhIP-based DNA damage quantified (FIG. 28A). […] Similarly the cells were co-treated with dihydromethysticin (1, 5, and 25 μM) and BaP (0.3 μM) for 3 hours with DNA isolated and BaP-based DNA damage quantified (FIG. 28B).

Series [5] deals with BaP-induced DNA damage in hepe1c1c7 cells. As to the kind of experiment: BaP-induced DNA damage in hepe1c1c7 cells. The conditions noted are these: 1, 5 and 25 μM co-treated with BaP (0.3 μM) for 3 hours. The series is classed as cell-based, rodent.
Text: as §1

In series [6] the test system is APAP-induced hepatotoxicity. Description: Short-term combination study: potentiation of APAP-induced hepatotoxicity in C57BL/6 mice. Conditions: 3-day daily gavage, DHM 37.5 mg/kg, FKB 11.5 mg/kg.
Text: Six week-old female C57BL/6J mice (Jackson Laboratories, ME) were housed at specific pathogen-free animal facilities of Research Animal Resources, University of Minnesota with free access to standard rodent food and water. All mice were acclimatized for one week before being used for experiments. Mice were gavaged with dose formulations at the indicated doses and times, euthanized by CO2 overdosing with necropsy performed by experienced researchers.
The short-term combination studies were designed to evaluate the potential synergism of kava and its chemicals to APAP induced hepatotoxicity. C57BL/6 mice were randomized (8-15 mice per group) and were administered with PEG-400 (200 μL), kava (500 mg/kg bodyweight), DHM or FKA and FKB in PEG-400 (200 μL) at the indicated doses daily via oral gavage for two days. On the third day, mice in the respective groups were co-administered with APAP (800 mg/kg bodyweight) in PEG-400 (200 μL). Bodyweight was recorded daily. Necropsies were performed 24 hours after the last gavage by experienced researchers. Serum from each mouse was analyzed for ALT and AST. Livers were collected and preserved in 10% neutral buffered formalin. Appropriately fixed tissues were processed into paraffin blocks using standard histological techniques, and 5 μm sections were cut and stained with hematoxylin and eosin (H&E).
The clinical chemistry data were reported as mean±SD (n=4-15). […] One-way analysis of variance (ANOVA) was used to compare the means among different groups in the short-term combination studies. Dunnett's test was used for comparisons of APAP and other treatment groups when the one-way ANOVA analysis was statistically significant. p-value≤0.05 was considered statistically significant. All analyses were conducted in GraphPad Prism 4 (GraphPad Software, Inc. La Jolla, Calif.).

On to `COC1=CC(=O)O[C@@H](CCc2ccc3c(c2)OCO3)C1` [(+)-DHM, (+)-dihydromethysticin], for which the “reduction of adenoma multiplicity” value in series [1] (0.05 mg/g of diet (50 ppm) Day 1-Day 14) is 97% and 97.1%; in series [1] (0.5 mg/g of diet Day 1-Day 14), 97.1%. For the same compound, the “reduction of adenoma incidence” value in series [1] (0.05 mg/g of diet Day 1-Day 14) and in series [1] (0.5 mg/g of diet Day 1-Day 14) was 40% in each case. Further, the adenoma multiplicity in series [1] (0.05 mg/g of diet Day 1-Day 14) and in series [1] (0.5 mg/g of diet Day 1-Day 14) was 0.6±0.5 lung adenoma/mouse in each case. The minimum effective dose result in series [1] was “lower than 0.05 mg/g”. The “effect on NNK-induced DNA damage in the liver tissues” value in series [2] is “none of the treatments had significant effects”.

Regarding `COC1=CC(=O)O[C@@H](CCc2ccc3c(c2)OCO3)C1` [DHM, dihydromethysticin], the minimum effective dose entry in series [1] is “lower than 0.05 mg/g”. For the same compound, the “tumor volume relative to control group” value in series [3] is recorded as “significantly reduced”. The “PhIP-induced DNA damage” value in series [4] is “effectively and dose-dependently reduced”. Also, the “BaP-induced DNA damage” value in series [5] was “effectively and dose-dependently reduced”. For the same compound, the “serum ALT and AST when combined with APAP, vs APAP alone” value in series [6] (APAP 800 mg/kg on third day, FKA and FKB 1, 2, 4 times abundance) is “no effect”. In series [6] (kava 500 mg/kg, FKA and FKB at 1, 2 and 4 times their abundance in kava 500 mg/kg), the “serum ALT and AST, treatment alone (without APAP)” value was “no effect”.
